This passage reports IC50 and EC50 results from patent publication US20250042896A1, “POLYCYCLIC COMPOUND AS CBL-B INHIBITOR” (HAINAN SIMCERE ZAIMING PHARMACEUTICAL CO., LTD., priority 2021, published 2025).

Experiment [1] deals with Cbl-b protein and UbcH5B-Ub (Homo sapiens (Human), UniProt Q13191). Kind of experiment: Cbl-b activity assay (HTRF, interaction between Cbl-b protein and UbcH5B-Ub). Particulars: inhibition of interaction between Biotin-Cbl-b protein and Eu-Ubquitin-UbcH5B, HTRF signal 665 nm/615 nm. Format: biochemical. The protocol:
Experiment purpose: Testing of inhibitory activity of compounds on the interaction between Cbl-b protein and UbcH5B-Ub
Experimental method: Eu-Ubquitin-UbcH5B was prepared by incubating Eu-Ubquitin (Cisbio) with UbcH5B (ENZO), E1 (ENZO) at 37° C. for 4 hours. Eu-Ubquitin-UbcH5B was aliquoted and stored at −80° C. Cbl-b activity assay was performed in 384-well plates (Perkin Elmer). 100 nL of 3-fold serial dilutions of compounds (final concentration 10 μM-0.5 nM, starting concentration 10 μM, 3-fold dilution, 10 points, 10th point being 0.5 nM) and 5 μL of 50 nM Biotin-Cbl-b protein (Sigma) were incubated for 1 hour at room temperature, and the reaction buffer was 50 mM HEPES pH 7.0 (Gibco), 100 mM NaCl (Sigma), 0.01% Triton X-100 (Sigma), 0.01% BSA (Sigma) and 1 mM DTT (Invitrogen). 5 μL of Src mixed solution (40 nM Src (R&D), 2 mM ATP (Sigma), 10 mM MgCl2 (Sigma)) was added to the reaction plate and incubated at room temperature for 3 hours. 10 μL of detection solution (12.5 nM Strepdividin-XL665 (Cisbio), 500 nM Eu-Ubquitin-UbcH5B, […] (Invitrogen), 0.004% BSA (Sigma)) was added to the reaction plate, incubated overnight at room temperature, and the HTRF signal (665 nm/615 nm) was read on Envision (Perkin Elmer). IC50 was calculated using IDBS XLfit.

The test system of experiment [2] is Jurkat T cells. Kind of experiment: Jurkat T activation assay (IL-2 release, ELISA). Type of experiment: cell-based. Conditions: IL-2 release of Jurkat T cells, Anti-Human CD3/CD28 stimulation, 48 hours, IL-2 ELISA. The protocol:
Experiment purpose: Testing of effect of compounds on IL-2 release and activation of Jurkat T cells
Experimental method: 96-well cell plates (Corning) were coated with 2 μg/mL Anti-Human CD3 Clone OKT3 (BD) at 37° C. for 4 hours. 3-fold serial dilutions of compounds (final concentration 10 μM-4.6 nM, starting concentration 10 μM, 3-fold dilution, 8 points, 8th point being 4.6 nM) and 220 μL of 1.11×10^6/mL Jurkat T cells (ATCC) were incubated for 1 hour, 5 μL of 45 μg/mL Anti-Human CD28 Clone CD28.2 (BD) was added, mixed evenly, 100 μL was transferred to the aforementioned CD3-coated cell plate, cultured in a cell incubator at 37° C. for 48 hours, and the supernatant was collected and the IL-2 release was detected using an IL-2 ELISA kit (BD). EC50 was analyzed using Prism.

Sequence of Cbl-b protein and UbcH5B-Ub (Q13191 whole entry, species assumed): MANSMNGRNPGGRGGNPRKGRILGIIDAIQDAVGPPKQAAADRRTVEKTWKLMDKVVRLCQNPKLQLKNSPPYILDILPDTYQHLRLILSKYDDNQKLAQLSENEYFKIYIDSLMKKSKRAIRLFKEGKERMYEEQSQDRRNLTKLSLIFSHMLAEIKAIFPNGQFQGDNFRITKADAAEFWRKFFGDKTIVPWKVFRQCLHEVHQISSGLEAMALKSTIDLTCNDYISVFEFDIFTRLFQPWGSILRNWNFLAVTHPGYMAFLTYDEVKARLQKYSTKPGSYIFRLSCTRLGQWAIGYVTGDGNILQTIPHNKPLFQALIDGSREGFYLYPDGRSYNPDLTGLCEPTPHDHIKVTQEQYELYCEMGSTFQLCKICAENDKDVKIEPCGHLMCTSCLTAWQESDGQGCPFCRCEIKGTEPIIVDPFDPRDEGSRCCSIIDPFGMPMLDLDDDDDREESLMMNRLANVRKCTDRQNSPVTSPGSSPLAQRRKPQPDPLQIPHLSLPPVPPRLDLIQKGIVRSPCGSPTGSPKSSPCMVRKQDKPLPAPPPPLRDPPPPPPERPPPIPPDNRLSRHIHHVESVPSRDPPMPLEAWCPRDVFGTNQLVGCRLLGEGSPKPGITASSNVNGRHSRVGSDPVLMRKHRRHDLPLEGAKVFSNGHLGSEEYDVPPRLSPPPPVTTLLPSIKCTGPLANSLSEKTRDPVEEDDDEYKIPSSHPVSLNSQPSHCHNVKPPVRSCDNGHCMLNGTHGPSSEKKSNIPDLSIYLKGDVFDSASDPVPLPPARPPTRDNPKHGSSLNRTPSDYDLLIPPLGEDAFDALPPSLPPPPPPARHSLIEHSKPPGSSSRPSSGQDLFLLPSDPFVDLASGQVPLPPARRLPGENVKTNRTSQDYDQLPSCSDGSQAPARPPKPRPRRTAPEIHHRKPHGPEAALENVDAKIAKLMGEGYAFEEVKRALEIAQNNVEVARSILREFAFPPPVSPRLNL

Turning to `CC1CC(c2cccc(-c3cnc4c(C(F)(F)F)cc(CN5CC6CC(C)(C6)C5)cn4c3=O)c2)(c2nncn2C)C1` (stereo not shown) [Compound 62], 23.6 nM corresponded to half-maximal inhibition in experiment [1] (IC50). The compound also registered an EC50 in experiment [2] of 525 nM.

The compound `Cc1cc(CN2CCC[C@H](C)C2)cc2c(=O)c(-c3cccc(C4(c5nncn5C)CC(C)C4)c3)coc12` (stereo partly drawn) [Compound 58, (S)-8-methyl-3-(3-(3-methyl-1-(4-methyl-4H-1,2,4-triazol-3-yl)cyclobutyl)phenyl)-6-((3-methylpiperidin-1-yl)methyl)-4H-chromen-4-one] displayed an IC50 in experiment [1] of 9.7 nM. In experiment [2], this compound returned a concentration giving a half-maximal response (EC50) of 112 nM.

With “(1S,3R)-3-(4-methyl-4H-1,2,4-triazol-3-yl)-3-(3-(8-methyl-6-(((S)-3-methylpiperidin-1-yl)methyl)-4-oxo-4H-chromen-3-yl)phenyl)cyclobutylacetonitrile [Compound 68]”, the IC50 in experiment [1] came out at 17.8 nM. The compound also yielded an EC50 in experiment [2] of 456 nM.

In experiment [1], `CC(NC1(C)CCC1)c1cc(C(F)(F)F)c2ncc(-c3cccc([C@]4(c5nncn5C)C[C@@H](C)C4)c3)c(=O)n2c1` (stereo partly drawn) [Compound 126, 3-(3-(cis-3-methyl-1-(4-methyl-4H-1,2,4-triazol-3-yl)cyclobutyl)phenyl)-7-(1-((1-methylcyclobutyl)amino)ethyl)-9-(trifluoromethyl)-4H-pyrido[1,2-a]pyrimidin-4-one] returned an IC50 of 11.1 nM. In experiment [2], the midpoint of the response, the EC50, lay at 80.5 nM.

Regarding `Cc1c(F)c(CN2CCC[C@H](C)C2)cc2c(=O)c(-c3cccc(C(c4nncn4C)C4CC4)c3)coc12` (stereo partly drawn) [Compound 124, 3-(3-(cyclopropyl(4-methyl-4H-1,2,4-triazol-3-yl)methyl)phenyl)-7-fluoro-8-methyl-6-(((S)-3-methylpiperidin-1-yl)methyl)-4H-chromen-4-one], in experiment [1], it took 19.7 nM to reach half-maximal inhibition (IC50). This compound displayed an EC50 in experiment [2] of 383 nM.

Regarding `C[C@H]1CCCN(Cc2cc(C(F)(F)F)c3ncc(-c4cccc([C@]5(c6nncn6C)C[C@@H](C)C5)c4)c(=O)n3c2)C1` [Compound 2-P1], in experiment [1], the IC50 was 27.1 nM. Also, the EC50 in experiment [2] is 426 nM.

Consider `Cc1c(F)c(CNC2(C)CCC2)cc2c(=O)c(-c3cccc([C@]4(c5nncn5C)C[C@@H](C)C4)c3)coc12` [Compound 122, 7-fluoro-8-methyl-3-(3-(cis-3-methyl-1-(4-methyl-4H-1,2,4-triazol-3-yl)cyclobutyl)phenyl)-6-(((1-methylcyclobutyl)amino)methyl)-4H-chromen-4-one], for which, in experiment [1], half-maximal inhibition (IC50) required 12.3 nM. Besides, the concentration giving a half-maximal response (EC50) in experiment [2] is 555 nM.

In the case of `Cc1cc(CN2CCC[C@H](C)C2)cc2c(=O)c(-c3cncc(C4(c5nncn5C)CC(C)C4)c3)coc12` (stereo partly drawn) [Compound 65, (S)-8-methyl-3-(5-(3-methyl-1-(4-methyl-4H-1,2,4-triazol-3-yl)cyclobutyl)pyridin-3-yl)-6-((3-methylpiperidin-1-yl)methyl)-4H-chromen-4-one], the IC50 in experiment [1] was found to be 17 nM. In experiment [2], the concentration giving a half-maximal response (EC50) turned out to be 265 nM.

`Cc1cc(CN2CCC[C@H](C)C2)cc2c(=O)c(-c3cccc(C(F)(c4nncn4C)C(F)(F)F)c3)coc12` (stereo partly drawn) [Compound 128, 8-methyl-6-(((S)-3-methylpiperidin-1-yl)methyl)-3-(3-(1,2,2,2-tetrafluoro-1-(4-methyl-4H-1,2,4-triazol-3-yl)ethyl)phenyl)-4H-chromen-4-one] gave an IC50 in experiment [1] of 28.6 nM. The compound also yielded an EC50 in experiment [2] of 279 nM.

Regarding `Cc1cc(CN2CCC[C@H](C)C2)cc2c(=O)c(-c3cccc(C4(c5nncn5C)CC(F)C4)c3)coc12` (stereo partly drawn) [Compound 69, 3-(3-((1R,3S)-3-fluoro-1-(4-methyl-4H-1,2,4-triazol-3-yl)cyclobutyl)phenyl)-8-methyl-6-(((S)-3-methylpiperidin-1-yl)methyl)-4H-chromen-4-one], the IC50 in experiment [1] was 15 nM. This compound also displayed an EC50 in experiment [2] of 552 nM.

Turning to `Cc1c(F)c(CN2CCC[C@H](C)C2)cc2c(=O)c(-c3cccc(C4(c5nncn5C)CC(C)C4)c3)coc12` (stereo in doubt) [Compound 121, 7-fluoro-8-methyl-3-(3-(cis-3-methyl-1-(4-methyl-4H-1,2,4-triazol-3-yl)cyclobutyl)phenyl)-6-(((s)-3-methylpiperidin-1-yl)methyl)-4H-chromen-4-one], it took 10.1 nM to reach half-maximal inhibition in experiment [1] (IC50). This compound also yielded a concentration giving a half-maximal response (EC50) in experiment [2] of 250 nM.

In turn, `Cc1cc(CN2CCC[C@H](C)C2)cc2c(=O)c(-c3cccc(C(F)(c4nncn4C)C4CC4)c3)coc12` (stereo partly shown) [Compound 120] had an IC50 in experiment [1] of 17.5 nM. Also, the midpoint of the response in experiment [2], the EC50, lay at 688 nM.

`Cc1cc(C(C)NC2(C)CCC2)cc2c(=O)c(-c3cccc([C@]4(c5nncn5C)C[C@@H](C)C4)c3)coc12` (stereo partly drawn) [Compound 123, 8-methyl-3-(3-(cis-3-methyl-1-(4-methyl-4H-1,2,4-triazol-3-yl)cyclobutyl)phenyl)-6-(1-((1-methylcyclobutyl)amino)ethyl)-4H-chromen-4-one] gave an IC50 in experiment [1] of 5.4 nM. The compound further came in with an EC50 in experiment [2] of 53.6 nM.

As to `CC1CC(c2cccc(-c3cnc4c(C(F)(F)F)cc(CN5CCC[C@H](C)C5)cn4c3=O)c2)(c2nncn2C)C1` (stereo partly drawn) [Compound 2, 3-[3-[3-methyl-1-(4-methyl-4H-1,2,4-triazol-3-yl)cyclobutyl]phenyl]-7-[[(3S)-3-methyl-1-piperidyl]methyl]-9-(trifluoromethyl)pyrido[1,2-a]pyrimidin-4-one], it took 40.3 nM to reach half-maximal inhibition in experiment [1] (IC50). Besides, the midpoint of the response in experiment [2], the EC50, lay at 634 nM.
